This passage reports IC50 results from patent US11566007B2, “Ras inhibitors” (Revolution Medicines, Inc., priority 2019, dated 2023).

Each structure is given as a SMILES string.

Holding throughout (format): biochemical
One experiment deals with K-Ras G12C (Homo sapiens (Human), UniProt P01116+P62937, G12C). Briefly: Ras-Raf (BRAF RBD) disruption / FRET / MOA assay, KRAS G12C. To be noted: KRAS G12C; Ras-Raf disruption/FRET/MOA assay; read-out: IC50* KRAS G12C FRET data. The method, boiled down:
(§1)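 Ras:RAF disruption was scored as a fall in TR-FRET ratio relative to DMSO. Compound ranged in 3-fold steps over 10 points from 30 μM final; incubation ran 3 h at 25° C, detection antibodies a further 1.5 h. Reported as IC50.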

Another experiment deals with K-Ras G13C (Homo sapiens (Human), UniProt P01116+P62937, G13C). Briefly: Ras-Raf (BRAF RBD) disruption / FRET / MOA assay, KRAS G13C. To be noted: KRAS G13C; Ras-Raf disruption/FRET/MOA assay; read-out: IC50* KRAS G13C FRET data. The method, boiled down: as §1
A further experiment addresses KRAS G12S (Homo sapiens (Human), UniProt P01116+P62937, G12S). The experiment can be described thus: Ras-Raf (BRAF RBD) disruption / FRET / MOA assay, KRAS G12S. To be noted: Ras-Raf disruption/FRET/MOA assay; class symbols; read-out: KRAS G12S FRET data IC50. The procedure, abridged:
as §1

A further experiment deals with KRAS G12V (Homo sapiens (Human), UniProt P01116+P62937, G12V). The experiment can be described thus: Ras-Raf (BRAF RBD) disruption / FRET / MOA assay, KRAS G12V. Particulars: read-out: IC50* KRAS G12V FRET data. The method, boiled down: as §1
For the next experiment, the target named is KRAS WT (Homo sapiens (Human), UniProt P01116+P62937). Briefly: Ras-Raf (BRAF RBD) disruption / FRET / MOA assay, KRAS WT. To be noted: read-out: IC50* KRAS WT FRET data. The method, boiled down:
as §1

The target of the next experiment is KRAS G13D (Homo sapiens (Human), UniProt P01116+P62937, G13D). Briefly: Ras-Raf (BRAF RBD) disruption / FRET / MOA assay, KRAS G13D. Particulars: read-out: IC50* KRAS G13D FRET data. The method, boiled down:
as §1

Another experiment has as its target NRAS G12C (Homo sapiens (Human), UniProt P01111+P62937, G12C). The experiment can be described thus: Ras-Raf (BRAF RBD) disruption / FRET / MOA assay, NRAS G12C. Particulars: read-out: IC50* NRAS G12C FRET data. The procedure, abridged:
as §1

In a further experiment the target is NRAS Q61R (Homo sapiens (Human), UniProt P01111+P62937, Q61R). The experiment can be described thus: Ras-Raf (BRAF RBD) disruption / FRET / MOA assay, NRAS Q61R. To be noted: NRAS Q61R; Ras-Raf disruption/FRET/MOA assay; read-out: IC50* NRAS Q61R FRET data. The procedure, abridged:
(§2)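 TR-FRET disruption of nucleotide-loaded Ras binding to BRAF RBD via compound-driven ternary complex with cyclophilin A. Compound as 10-point 3-fold series from 30 μM final, 3 h at 25° C, then anti-His Eu-W1024 (10 nM) and anti-GST allophycocyanin (50 nM) for 1.5 h. IC50 from decreased FRET ratio versus DMSO.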

The target in another experiment is NRAS Q61K (Homo sapiens (Human), UniProt P01111+P62937, Q61K). Briefly: Ras-Raf (BRAF RBD) disruption / FRET / MOA assay, NRAS Q61K. Particulars: NRAS Q61K; Ras-Raf disruption/FRET/MOA assay; read-out: IC50* NRAS Q61K FRET data. The method, boiled down:
as §2

The next experiment deals with NRAS WT (Homo sapiens (Human), UniProt P01111+P62937). Briefly: Ras-Raf (BRAF RBD) disruption / FRET / MOA assay, NRAS WT. To be noted: read-out: IC50* NRAS WT FRET data. The procedure, abridged:
as §2

K-Ras G13C, sequence (P01116-2 other isoform, or with tags, fused parts or gaps G13C): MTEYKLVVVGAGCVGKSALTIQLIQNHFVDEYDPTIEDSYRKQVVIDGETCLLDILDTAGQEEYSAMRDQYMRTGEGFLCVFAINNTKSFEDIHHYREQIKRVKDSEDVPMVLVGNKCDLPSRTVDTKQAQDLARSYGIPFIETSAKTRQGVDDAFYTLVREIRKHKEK
K-Ras G13C, sequence (P62937 whole entry): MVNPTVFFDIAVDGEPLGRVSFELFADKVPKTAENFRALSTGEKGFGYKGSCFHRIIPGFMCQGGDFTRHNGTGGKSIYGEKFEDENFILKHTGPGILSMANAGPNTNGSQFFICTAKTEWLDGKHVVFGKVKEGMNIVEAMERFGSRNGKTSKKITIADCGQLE
NRAS WT, sequence (P01111 whole entry): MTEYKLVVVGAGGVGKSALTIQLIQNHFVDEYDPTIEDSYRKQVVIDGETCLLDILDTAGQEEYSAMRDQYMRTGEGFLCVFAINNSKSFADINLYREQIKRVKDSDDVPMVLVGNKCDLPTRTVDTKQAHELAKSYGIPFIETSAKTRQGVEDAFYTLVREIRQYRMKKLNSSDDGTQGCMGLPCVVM
NRAS WT, sequence (P62937 whole entry): as the sequence (P62937 whole entry) above
KRAS G12V, sequence (P01116-2 other isoform, or with tags, fused parts or gaps G12V): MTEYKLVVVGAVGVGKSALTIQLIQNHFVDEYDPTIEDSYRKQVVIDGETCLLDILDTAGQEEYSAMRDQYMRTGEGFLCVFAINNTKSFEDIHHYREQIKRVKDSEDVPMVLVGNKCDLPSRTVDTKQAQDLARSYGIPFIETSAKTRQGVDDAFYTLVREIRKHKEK
KRAS G12V, sequence (P62937 whole entry): as the sequence (P62937 whole entry) above
NRAS Q61K, sequence (P01111 whole entry Q61K): as the sequence (P01111 whole entry) above, with Q61K counted along it
NRAS Q61K, sequence (P62937 whole entry): as the sequence (P62937 whole entry) above
KRAS G13D, sequence (P01116-2 other isoform, or with tags, fused parts or gaps G13D): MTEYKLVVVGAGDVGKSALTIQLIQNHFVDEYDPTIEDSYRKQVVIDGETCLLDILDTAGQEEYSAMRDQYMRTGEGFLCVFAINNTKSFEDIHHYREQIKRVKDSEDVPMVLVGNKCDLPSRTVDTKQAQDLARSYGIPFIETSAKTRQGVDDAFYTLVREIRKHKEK
KRAS G13D, sequence (P62937 whole entry): as the sequence (P62937 whole entry) above
KRAS WT, sequence (P01116-2 other isoform, or with tags, fused parts or gaps): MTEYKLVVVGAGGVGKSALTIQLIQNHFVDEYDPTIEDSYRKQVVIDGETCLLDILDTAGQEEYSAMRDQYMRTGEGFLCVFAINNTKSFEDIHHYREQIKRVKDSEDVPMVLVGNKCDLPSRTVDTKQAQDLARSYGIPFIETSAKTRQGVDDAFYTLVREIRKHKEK
KRAS WT, sequence (P62937 whole entry): as the sequence (P62937 whole entry) above
NRAS G12C, sequence (P01111 whole entry G12C): as the sequence (P01111 whole entry) above, with G12C counted along it
NRAS G12C, sequence (P62937 whole entry): as the sequence (P62937 whole entry) above
NRAS Q61R, sequence (P01111 whole entry Q61R): as the sequence (P01111 whole entry) above, with Q61R counted along it
NRAS Q61R, sequence (P62937 whole entry): as the sequence (P62937 whole entry) above
K-Ras G12C, sequence (P01116-2 other isoform, or with tags, fused parts or gaps G12C): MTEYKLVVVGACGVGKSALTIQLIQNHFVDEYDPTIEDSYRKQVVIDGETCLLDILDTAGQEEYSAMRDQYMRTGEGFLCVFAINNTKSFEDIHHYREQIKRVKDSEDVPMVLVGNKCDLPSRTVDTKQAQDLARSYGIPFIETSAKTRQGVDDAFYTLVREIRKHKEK
K-Ras G12C, sequence (P62937 whole entry): as the sequence (P62937 whole entry) above
KRAS G12S, sequence (P01116-2 other isoform, or with tags, fused parts or gaps G12S): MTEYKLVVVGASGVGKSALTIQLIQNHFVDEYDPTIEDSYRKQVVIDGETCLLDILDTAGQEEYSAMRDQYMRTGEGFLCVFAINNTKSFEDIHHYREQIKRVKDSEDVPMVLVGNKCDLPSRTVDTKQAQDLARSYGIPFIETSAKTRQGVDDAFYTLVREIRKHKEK
KRAS G12S, sequence (P62937 whole entry): as the sequence (P62937 whole entry) above

For `CCn1c(-c2cccnc2[C@H](C)OC)c2c3cc(ccc31)-c1cccc(c1)C[C@H](NC(=O)[C@H](C(C)C)N(C)C(=O)N1CCC13CN(C(=O)C#CC(C)(C)N(C)C)C3)C(=O)N1CCC[C@H](N1)C(=O)OCC(C)(C)C2` [Example A672], the 50% inhibitory concentration (IC50) fell in the range of 10 to 100 nM on K-Ras G12C; 100 to 1000 nM at K-Ras G13C; 100 to 1000 nM on KRAS G12S; 100 to 1000 nM at KRAS G12V; 100 to 1000 nM on KRAS WT; 100 to 1000 nM at KRAS G13D. The IC50 lay in the range of 10 to 100 nM on NRAS G12C, 100 to 1000 nM at NRAS Q61R, 100 to 1000 nM on NRAS Q61K and 100 to 1000 nM at NRAS WT.
Take `C=CC(=O)N(C)[C@H]1CC1N(C)C(=O)N(C)[C@H](C(=O)N[C@H]1Cc2nc(cs2)-c2ccc3c(c2)c(c(-c2cccnc2[C@H](C)OC)n3CC)CC(C)(C)COC(=O)[C@@H]2CCCN(N2)C1=O)C(C)C` (some centres unmarked) [Example A738]: the 50% inhibitory concentration (IC50) lay in the range of 100 to 1000 nM at K-Ras G12C; 100 to 1000 nM on K-Ras G13C; 1000 to 10000 nM on KRAS G12S; 1000 to 10000 nM at KRAS G12V; 100 to 1000 nM at KRAS WT; 1000 to 10000 nM on KRAS G13D. The IC50 at NRAS G12C, at NRAS Q61R, on NRAS Q61K and on NRAS WT was 100 to 1000 nM each time.

The IC50 is the concentration at which inhibition is half-maximal.
